Patent EP3553061A1, “NEW INHIBITORS OF BONE RESORPTION” (CENTRE NATIONAL DE LA RECHERCHE SCIENTIFIQUE (CNRS), priority 2018, dated 2019)
Values joined by “and” are separate entries in the source; they are usually repeats but may differ in a detail not shown here. Equal entries are not always repeated. Where two headings read alike, the source gives them in different places.

Columns and labels:
human Dock5 = molecular target: T1, human Dock5 (Homo sapiens, UniProt Q9H7D0); assay: Pull down assay of Rac activation by human Dock5 DHR2 in transfected 293T cells; type: cell-based; settings: for inhibition at 50 µM / inhibition at 100 µM: HEK-293T; for IC50: 1 hour treatment
T1 construct: plasmid expressing the catalytic DHR2 domain of mouse or human Dock5; expressed in transfected cells; host or cells: 293T cells
Description: (§1) Compounds E73, E88 and E78 were tested for their inhibiting effect of the activation of Rac by mouse Dock5 of and for certain human Dock5 according to a screening test using a pull down assay as represented in Figure 1.
Methodology (Figure 1): cells 293T seeded onto 100 mm diameter plates in a DMEM culture medium containing 10% serum in an incubator in 5.5% CO2 humidified atmosphere at 37°C. When they reach the density of 5x10^6 cells per plate, cells are transfected with 8 µg of plasmid expressing the catalytic DHR2 domain of mouse or human Dock5 in order to activate endogenous GTPase Rac. After 24 hours, the cells are lifted using trypsin and are seeded 10^6 per well in 6-well plates of 35 mms in diameter. The following day, the cells are put in contact during one hour with the compound, in a mother solution at 20 mM into 100% DMSO, to a test concentration of 100 µM into 0.5% DMSO in the DMEM medium containing 0.1% of BSA. The basal activation of Rac by Dock5 is measured from the cells treated with 0.5% DMSO. After treatment, the cells are observed under the optical microscope to make sure of the absence of any toxic effect of the compound. If cell suffering is detected, the test is invalidated and the compound is retested at a lower dosage. The cells are then lysed in 100 µl of the pull down buffer (10% glycerol, 50 mm Tris pH 7.4, 100 mM NaCl, 1% IGEPAL® CA-630 (SIGMA I3021), 2 mM MgCl2 supplemented with proteases inhibitors) and the lysate is incubated during one hour with 20 µg of sepharose beads coupled with the fusion protein GST-PAK-CRIB, which binds specifically the activated form of GTPase Rac, which is bound to GTP. After centrifugation and washings, the proteins associated with the beads, including active Rac GTPase, are denatured and loaded on an SDS PAGE gel. […] For each compound tested, the level of active Rac GTPase is quantified using the Image J software and is normalized to the concentration of total protein in the whole cell lysate. The efficiency of the molecule is defined by the level of active Rac after treatment compared to the level of active Rac in the cells treated with DMSO (control). An activity is considered as inhibitory if the level of Rac activation decreases by at least 10%, 20%, in particular at least 30%, 40%, and preferably at least 50% compared to the control treated with DMSO (Table 1).
The same approach was used to test the potency of molecules of the 48ED family, on the activity of human Dock5 DHR2 (Table 2). Table 2: Inhibitory activity of the compounds of the 48ED family on human Dock5 activity.

[1] = molecular target: T2, DHR2 exchange domain of Dock5 (Homo sapiens, UniProt Q9H7D0); assay: In vitro Rac1 nucleotide exchange (mantGDP fluorescence) with purified recombinant proteins, Dock5; type: biochemical; settings: inhibitor 20 and 60 µM
T2 construct: catalyzed by the DHR2 exchange domain of Dock5 or by the Dbl exchange domain of TRIO; made in house; host or cells: E. coli
Description: (§2) The effect of the molecules has been tested on the nucleotide exchange reaction by the GTPase Rac1 catalyzed by the DHR2 exchange domain of Dock5 or by the Dbl exchange domain of TRIO, using purified recombinant proteins produced in E. coli bacteria (Vives, Cres et al., 2015).
(§3) The activity of the inhibitors is measured by fluorescence spectroscopy on 96-well plates with a FlexStation 3 fluorimeter, in a reaction volume of 150 µL, without stirring, at a temperature of 26 ° C. Each plate contains 4 inhibitors at two concentrations (20 and 60 µM), 2 GEFs (DOCK5 and TRIO) and includes controls without inhibitor (1% final DMSO). The inhibitors are diluted to DMSO at an intermediate concentration of 2 or 6 mM, ie 1% final DMSO. Rac1-mantGDP (2 µM), DOCK5 or TRIO (0,2 µM) and the inhibitors are mixed immediately before the beginning of measurements. The exchange reaction is triggered by series of 8 wells in parallel by addition of 100 µM of GTP with mixing by pipetting (Flex mode). The kinetics is followed during 800 seconds. All the measurements are made in duplicate on the same plate. The total playing time of a plate is about 80 minutes. The kinetics of exchange are analyzed with a mono-exponential model F = F0 + ΔFe - kt with the KaleidaGraph ™ software, where F0 is the initial fluorescence and k (or kobs) is the exchange rate constant.

[2] = molecular target: T3, Dbl exchange domain of TRIO (Homo sapiens, UniProt O75962); assay: In vitro Rac1 nucleotide exchange (mantGDP fluorescence) with purified recombinant proteins, TRIO; type: biochemical; settings: inhibitor 20 and 60 µM
T3 construct: catalyzed by the DHR2 exchange domain of Dock5 or by the Dbl exchange domain of TRIO; made in house; host or cells: E. coli
Description: as §2, §3

ovariectomized mice = assay: Bone dynamics parameters in ovariectomized mice; type: in vivo, mouse; settings: OVX mice
Description: The ovariectomized mouse was used as an in vivo model of pathological bone loss. […] Each group contained ten female C57BL/6J mice that were fourteen weeks of age at the beginning of in-life phase of the study. At the beginning of the in-life phase (at study day 0), mice were weighed and their surgical ovariectomy (OVX) and control (SHAM) operations were performed under analgesia and anaesthesia. […] was injected intra peritoneally (i.p.) to OVX animals, 20 mg/kg once (q.d., dose 1) or twice (b.i.d., dose 2) daily for 25 days, in a vehicle solution containing 0.485% carboxymethylcellulose (CMC) and 3% Tween 80. Control mice received the same volume of vehicle. The effects of treatment with reference compound zoledronate (100 μg/kg, subcutaneously, twice a week.) were studied by comparing OVX mice treated with zoledronate and vehicle with OVX control mice treated with vehicle. At study days 21 and 26, bone was labelled with subcutaneous injections of oxytetracycline and calcein green, respectively, in order to enable the analysis of optional dynamic parameters in bone histomorphometry. Blood for serum samples were harvested from saphenous vein at days -1, 13 and 27 of the study for bone dynamics marker dosage.

[3] = cited from earlier work
mouse Dock5 = molecular target: T4, mouse Dock5 (Mus musculus, UniProt B2RY04); assay: Pull down assay of Rac activation by mouse Dock5 DHR2 in transfected 293T cells; type: cell-based
T4 construct: plasmid expressing the catalytic DHR2 domain of mouse or human Dock5; expressed in transfected cells; host or cells: 293T cells
Description: as §1
Methodology (Figure 1): cells 293T seeded onto 100 mm diameter plates in a DMEM culture medium containing 10% serum in an incubator in 5.5% CO2 humidified atmosphere at 37°C. When they reach the density of 5x10^6 cells per plate, cells are transfected with 8 µg of plasmid expressing the catalytic DHR2 domain of mouse or human Dock5 in order to activate endogenous GTPase Rac. After 24 hours, the cells are lifted using trypsin and are seeded 10^6 per well in 6-well plates of 35 mms in diameter. The following day, the cells are put in contact during one hour with the compound, in a mother solution at 20 mM into 100% DMSO, to a test concentration of 100 µM into 0.5% DMSO in the DMEM medium containing 0.1% of BSA. The basal activation of Rac by Dock5 is measured from the cells treated with 0.5% DMSO. […] If cell suffering is detected, the test is invalidated and the compound is retested at a lower dosage. […] For each compound tested, the level of active Rac GTPase is quantified using the Image J software and is normalized to the concentration of total protein in the whole cell lysate. […]

[4] = Table 3, human Dock5, test concentration 100 µM, 1 hour, replicate values, 100 µM
[5] = 20 mg/kg, i.p., b.i.d., first two weeks of in-life phase, vs OVX vehicle
[6] = 20 mg/kg, i.p., q.d. and b.i.d., study day 28, vs OVX vehicle
[7] = 20 mg/kg, i.p., q.d. and b.i.d, study day 28
[8] = zoledronate 100 µg/kg, subcutaneously, twice a week, study day 28, vs OVX vehicle
[9] = Table 3, human Dock5, test concentration 100 µM, 1 hour, replicate values, read-out: Inhibition

T1 sequence (Q9H7D0 1231-1642 limits assumed): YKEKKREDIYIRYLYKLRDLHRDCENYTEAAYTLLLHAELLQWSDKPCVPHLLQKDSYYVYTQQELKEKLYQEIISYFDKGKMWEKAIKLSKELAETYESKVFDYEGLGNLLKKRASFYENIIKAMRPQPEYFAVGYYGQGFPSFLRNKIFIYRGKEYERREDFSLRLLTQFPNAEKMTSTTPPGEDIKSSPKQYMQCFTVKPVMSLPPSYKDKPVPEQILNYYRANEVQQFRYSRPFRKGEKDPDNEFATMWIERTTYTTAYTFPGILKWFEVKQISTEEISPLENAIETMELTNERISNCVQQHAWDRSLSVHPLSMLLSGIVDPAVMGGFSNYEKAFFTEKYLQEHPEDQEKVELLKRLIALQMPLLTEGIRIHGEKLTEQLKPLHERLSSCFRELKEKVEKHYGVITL
T4 sequence (B2RY04 1231-1642 limits assumed): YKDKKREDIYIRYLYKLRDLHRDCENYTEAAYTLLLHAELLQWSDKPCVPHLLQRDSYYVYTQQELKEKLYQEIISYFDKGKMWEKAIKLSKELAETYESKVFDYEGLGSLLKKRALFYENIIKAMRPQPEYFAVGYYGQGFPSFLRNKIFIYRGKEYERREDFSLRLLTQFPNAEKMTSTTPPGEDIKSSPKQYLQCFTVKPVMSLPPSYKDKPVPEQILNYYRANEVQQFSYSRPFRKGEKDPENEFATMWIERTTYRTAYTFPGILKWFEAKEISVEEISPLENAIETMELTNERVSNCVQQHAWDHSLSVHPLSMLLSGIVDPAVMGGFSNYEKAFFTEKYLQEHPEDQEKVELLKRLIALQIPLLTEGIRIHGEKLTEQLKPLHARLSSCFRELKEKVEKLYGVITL
T2 sequence (Q9H7D0 1231-1642 limits assumed): as the sequence (Q9H7D0 1231-1642 limits assumed) above

## O=S1(=O)N(c2ccccc2)C[C@H](O)[C@]12CCN(Cc1ccc(Cl)cc1)C2 (racemic) [E197, rac-(4S,5R)-7-(4-chlorobenzyl)-4-hydroxy-2-phenyl-1-thia-2,7-diazaspiro[4.4]nonane 1,1-dioxide]
Human Dock5; Table 3, human Dock5, at 50µM
  inhibition at 50 µM: 80%
Human Dock5; [4]
  Inhibition: 55% and 90%
Human Dock5; human Dock5
  IC50: 36 µM
[1]
  effect on the nucleotide exchange reaction of Rac1 catalyzed by Dock5: inhibit Dock 5
[2]
  effect on the nucleotide exchange reaction of Rac1 catalyzed by TRIO: not TRIO
Ovariectomized mice; 20 mg/kg, i.p., b.i.d., bone histomorphometry, study day 28, vs OVX vehicle
  trabecular separation (Tb.Sp): decreased
Ovariectomized mice; 20 mg/kg, i.p., b.i.d., entire in-life phase, vs OVX vehicle
  relative change in serum PINP levels: decreased
Ovariectomized mice; [5]
  relative change in serum CTX-I levels: decreased
  relative change in serum PINP levels: decreased
Ovariectomized mice; 20 mg/kg, i.p., b.i.d., study day 28, vs OVX vehicle
  trabecular bone volume fraction (BV/TV) in femoral and tibial metaphyses: increased
Ovariectomized mice; 20 mg/kg, i.p., b.i.d., µCT, study day 28, vs OVX vehicle
  trabecular number (Tb.N) in tibial metaphysis: increased
Ovariectomized mice; 20 mg/kg, i.p., q.d. and b.i.d., entire in-life phase
  serum levels of bone turnover biomarker osteoclacin: did not decreased
Ovariectomized mice; [6]
  cortical bone specific surface (BS/BV) in tibial diaphysis: decreased
  cortical thickness (Ct.Th) in tibial diaphysis: increased
Ovariectomized mice; [7]
  mineral apposition rate (MAR) in trabecular bone in femoral metaphysis: did not decreased
  mineralizing surface per bone surface (MS/BS) in trabecular bone in femoral metaphysis: did not decreased
Ovariectomized mice; in-life phase (day 0 to day 28)
  body weight: did not affect body weight

## O=S(=O)(Nc1cc(Cl)cc(Cl)c1)c1ccccc1 [C21, N-(3,5-dichlorophenyl)-benzenesulfonamide]
[3]; mice treated daily along 4 weeks
  bone formation: Bone formation is maintained
[3]; mice
  histological observation of all tissues: did not reveal any anomaly
[3]; mouse
  development of bone metastases: reduces the development of bone metastases
[3]; mouse, postmenopausal osteoporosis, inflammatory and metastasis-induced bone loss models, intravenous or intraperitoneal administration
  bone resorption: inhibits effectively the bone resorption

## O=S1(=O)N(c2ccccc2)C[C@H](O)[C@]12CCN(Cc1ccc(Cl)c(Cl)c1)C2 (racemic) [E202, rac-(4S,5R)-7-(3,4-dichlorobenzyl)-4-hydroxy-2-phenyl-1-thia-2,7-diazaspiro[4.4]nonane 1,1-dioxide]
Human Dock5; Table 3, human Dock5, at 50µM
  inhibition at 50 µM: 95%
  Inhibition: 90%
Human Dock5; human Dock5
  IC50: 29 µM
[1]
  effect on the nucleotide exchange reaction of Rac1 catalyzed by Dock5: inhibit Dock 5
[2]
  effect on the nucleotide exchange reaction of Rac1 catalyzed by TRIO: not TRIO

## O=S1(=O)N(c2ccccc2)C[C@H](O)[C@]12CCN(Cc1cccc(Cl)c1)C2 [E73]
Mouse Dock5; HEK-293T, 100 µM, species of Dock5 not given
  inhibition at 100 µM: ~95%
Mouse Dock5; mouse DHR2 of Dock5
  IC50: 17 µM
Human Dock5; Table 1a, test concentration 100 µM, 1 hour, replicate values, Negative = Rac activation does not decrease, read-out: Inhibition Dock5 (%) Human
  inhibition at 100 µM: 70%
Human Dock5; Table 1a, test concentration 100 µM, 1 hour, replicate values, Negative = Rac activation does not decrease, 100 µM
  Inhibition Dock5 (%) Human: 60% and 55%
Human Dock5; Table 2, human Dock5 DHR2, test concentration 100 µM, 1 hour, replicate values, Negative = Rac activation does not decrease, 100 µM
  Inhibition: 55% and 95% (3×) and 50% and 90% (2×)
Human Dock5; human Dock5
  IC50: 36 µM

## O=P(O)(O)C(O)(Cn1ccnc1)P(=O)(O)O [Zoledronate, reference compound]
Ovariectomized mice; zoledronate 100 µg/kg, subcutaneously, twice a week, in-life phase, vs OVX vehicle
  relative change in serum osteoclacin levels: decreased
Ovariectomized mice; [8]
  mineral apposition rate (MAR) in trabecular bone in femoral metaphysis: decreased
  mineralizing surface per bone surface (MS/BS) in trabecular bone in femoral metaphysis: decreased

## O=S1(=O)N(Cc2ccccc2)C[C@H](Oc2ccccn2)[C@]12CCN(Cc1ccccc1)C2 [E224]
Human Dock5; [9]
  inhibition at 100 µM: 20%

## Cc1noc(C)c1CN1CC[C@@]2(C1)[C@@H](O)CN(c1ccccc1)S2(=O)=O [E199]
Human Dock5; [9]
  inhibition at 100 µM: 40%
Human Dock5; Table 3, human Dock5, test concentration 100 µM, 1 hour, replicate values
  Inhibition: 40% / 40%

## O=C(O)CO[C@H]1CN(c2ccccc2)S(=O)(=O)[C@@]12CCN(Cc1ccccc1)C2 [E232]
Human Dock5; [4]
  Inhibition: 40% (2×) and 10%

## CN1C[C@H](O)[C@]2(CCN(Cc3ccccc3)C2)S1(=O)=O [E120]
Human Dock5; Table 2, human Dock5 DHR2, test concentration 100 µM, 1 hour, replicate values, Negative = Rac activation does not decrease
  Inhibition: Negative
